What was measured:
[1] = logP determination by HPLC (formic acid method); assay type: physicochemical; conditions: reversed-phase HPLC column (C18), pH 3.4, HPLC on reversed-phase column (C18), acidic range (pH 3.4), 55° C.; read-out: logP (HCOOH)
Procedure, shortened: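 Reversed-phase C18 HPLC at 55 °C, pH 3.4, with a 4.25 min gradient from 10% to 95% acetonitrile (formic acid-modified water/acetonitrile phases). logP was derived from retention time by linear interpolation between unbranched alkan-2-ones (C3-C16) of known logP.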

[2] = test system: green peach aphid (Myzus persicae); experiment: Myzus test (spray treatment); assay type: in vivo; conditions: foliar, application rate of 500 g/ha, sprayed Chinese cabbage leaf discs, read-out: activity (effect in %, aphids killed)
Procedure, shortened: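 Chinese cabbage leaf discs heavily infested with all stages of the aphid are sprayed with compound formulated in acetone/dimethylformamide with alkylaryl polyglycol ether emulsifier, diluted in emulsifier-containing water. After a set period, kill is scored in %: 100% all aphids dead, 0% none.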

[3] = test system: greenhouse red spidermite (Tetranychus urticae); experiment: Tetranychus test, OP-resistant (spray treatment); assay type: in vivo; conditions: application rate of 100 g/ha; sprayed bean leaf discs
Description: Tetranychus Test, OP-Resistant (Spray Treatment)
• Solvents: 78.0 parts by weight of acetone • 1.5 parts by weight of dimethylformamide • Emulsifier: 0.5 part by weight of alkylaryl polyglycol ether
To produce a suitable preparation of active compound, 1 part by weight of active compound is mixed with the stated amounts of solvent and emulsifier, and the concentrate is diluted with emulsifier-containing water to the desired concentration.
Discs of the leaves of beans (Phaseolus vulgaris) which are infested by all stages of the greenhouse red spidermite (Tetranychus urticae) are sprayed with an active compound preparation of the desired concentration.
After the desired period of time, the effect in % is determined. 100% means that all spidermites have been killed; 0% means that none of the spidermites have been killed.

Boophilus microplus = Boophilus microplus test (injection); assay type: in vivo; conditions: application rate of 20 μg/animal; injected into the abdomen
Description: Boophilus microplus Test (Injection) • Solvent: Dimethyl sulphoxide To produce a suitable preparation of active compound, 1 part by weight of active compound is mixed with the stated amounts of solvent, and the concentrate is diluted with water to the desired concentration. The solution of active compound is injected into the abdomen (Boophilus microplus), and the animals are transferred into dishes and stored in a climatized room. The activity is checked by examination for deposition of fertile eggs, After the desired period of time, the effect in % is determined. 100% means that none of the ticks has laid fertile eggs.

chromatographic logP [1] | SMILES | pest or weed control at 500 g/ha [2] | activity (effect in %, spidermites killed) [3] | activity (effect in %, deposition of fertile eggs) (Boophilus microplus)
1.69 | Cc1nc(-c2cccnc2)sc1-c1ccn(Cc2ccccn2)n1 [Ex. No. 27] | ≥ 80% | ≥ 80% | 
2.81 | FC(F)(F)c1cccc(-c2cnc(-c3cccnc3)s2)n1 [Ex. No. 49] | ≥ 80% |  | ≥ 80%
2.46 | CCOCCCNC(=O)n1ccc(-c2sc(-c3cccnc3)nc2C)n1 [compound 123] | ≥ 80% |  | 
3.09 | Cc1nc(-c2cccnc2)sc1-c1ccn(C(=O)NC2CCCC2)n1 [compound 124] | ≥ 80% |  | 
2.08 | Cc1nc(-c2cccnc2)sc1-c1ccn(C(=O)NC2CC2)n1 [compound 125] | ≥ 80% |  | 
1.87 | COCCNC(=O)n1ccc(-c2sc(-c3cccnc3)nc2C)n1 [compound 126] | ≥ 80% |  | 
2.57 | Cc1nc(-c2cccnc2)sc1-c1ccn(C(=O)NCC2CC2)n1 [compound 127] | ≥ 80% |  | 
2.38 | Cc1nc(-c2cccnc2)sc1-c1ccn(C(=O)NCC(F)(F)F)n1 [compound 128] | ≥ 80% |  | 
2.34 | CSCCNC(=O)n1ccc(-c2sc(-c3cccnc3)nc2C)n1 [compound 129] | ≥ 80% |  | 
4.17 | Cc1nc(-c2cccnc2)sc1-c1ccn(C(=O)NC(C)(C)C(C)C)n1 [compound 130] | ≥ 80% |  | 
2.14 | CCC(CC#N)NC(=O)n1ccc(-c2sc(-c3cccnc3)nc2C)n1 (stereo not drawn) [compound 131] | ≥ 80% |  | 
2.46 | CCCNC(=O)n1ccc(-c2sc(-c3cccnc3)nc2C)n1 [compound 132] | ≥ 80% |  | 
2.53 | COC(C)(C)CNC(=O)n1ccc(-c2sc(-c3cccnc3)nc2C)n1 [compound 133] | ≥ 80% |  | 
2.69 | C#CC(C)(C)NC(=O)n1ccc(-c2sc(-c3cccnc3)nc2C)n1 [compound 134] | ≥ 80% |  | 
3.28 | COCCCNC(=S)n1ccc(-c2sc(-c3cccnc3)nc2C)n1 [compound 135] | ≥ 80% |  | 
4.41 | Cc1nc(-c2cccnc2)sc1-c1ccn(C(=S)NC(C)c2ccccc2)n1 (stereo not drawn) [compound 136] | ≥ 80% |  | 
2.65 | CNC(=S)n1ccc(-c2sc(-c3cccnc3)nc2C)n1 [compound 137] | ≥ 80% |  | 
2.19 | Cc1nc(-c2cccnc2)sc1-c1nc(-c2ccncc2)no1 [compound 138] | ≥ 80% |  | 
2.61 | Cc1cccc(-c2noc(-c3sc(-c4cccnc4)nc3C)n2)n1 [compound 139] | ≥ 80% |  | 
3.42 | Cc1nc(-c2cccnc2)sc1-c1ccn(C(=S)NCC(F)(F)F)n1 [compound 141] | ≥ 80% |  | 
3.35 | Cc1nc(-c2cccnc2)sc1-c1ccnc(C(F)(F)C(F)(F)F)n1 [compound 142] | ≥ 80% |  | 
4.28 | Cc1nc(-c2cccnc2)sc1-c1ccn(C(=S)NCC(C)C)n1 [compound 143] | ≥ 80% |  | 
2.72 | Cc1nc(-c2cccnc2)sc1-c1ccc(C(F)(F)F)nc1 [compound 144] | ≥ 80% |  | 
1.71 | Cc1noc(Cn2ccc(-c3sc(-c4cccnc4)nc3C)n2)n1 [compound 145] | ≥ 80% |  | 
1.43 | Cc1nc(-c2cccnc2)sc1-c1ccn(Cc2ncccn2)n1 [compound 146] | ≥ 80% |  | 

chromatographic logP [1] | SMILES | pest or weed control at 500 g/ha [2] | activity (effect in %, spidermites killed) [3] | activity (effect in %, deposition of fertile eggs) (Boophilus microplus)
1.24 | c1cnc(Cn2ccc(-c3cnc(-c4cccnc4)s3)n2)nc1 [compound 147] | ≥ 80% |  | 
1.59 | c1cncc(-c2ncc(-c3cccc(C4=NOCCO4)n3)s2)c1 [compound 148] | ≥ 80% |  | 
1.85 | c1cncc(-c2ncc(-c3cccc(-n4ccnn4)n3)s2)c1 [compound 149] | ≥ 80% |  | 
1.76 | Cc1nc(-c2cncnc2)sc1-c1cccc(-c2ncccn2)n1 [compound 150] | ≥ 80% |  | 
1.54 | c1cnc(-c2cccc(-c3cnc(-c4cncnc4)s3)n2)nc1 [compound 151] | ≥ 80% |  | 
2.43 | Cc1nc(-c2cncc(F)c2)sc1-c1cccc(-c2ncccn2)n1 [compound 152] | ≥ 80% |  | 
2.11 | Fc1cncc(-c2ncc(-c3cccc(-c4ncccn4)n3)s2)c1 [compound 153] | ≥ 80% |  | 
2.13 | Cc1nc(-c2cccnc2)sc1-c1cccc(-n2ccnn2)n1 [compound 154] | ≥ 80% |  | 
1.89 | c1cncc(-c2ncc(-c3cccc(-n4nccn4)n3)s2)c1 [compound 155] | ≥ 80% |  | 
2.65 | Cc1nc(-c2cccnc2)sc1-c1cccc(-n2nc(C(F)(F)F)n(C)c2=O)n1 [compound 156] | ≥ 80% |  | 
2.35 | Cn1c(C(F)(F)F)nn(-c2cccc(-c3cnc(-c4cccnc4)s3)n2)c1=O [compound 157] | ≥ 80% |  | 
1.41 | c1cncc(-c2nnc(-c3ccncc3)s2)c1 [compound 158] | ≥ 80% |  | 
3.16 | FC(F)(F)Oc1cccc(-c2nnc(-c3cccnc3)s2)c1 [compound 159] | ≥ 80% |  | 
1.44 | c1cnc(-n2ccc(-c3nnc(-c4cccnc4)s3)n2)nc1 [compound 160] | ≥ 80% |  | 
1.13 | c1cnc(-n2nccc2-c2nnc(-c3cccnc3)s2)nc1 [compound 161] | ≥ 80% |  | 
0.84 | c1cncc(-c2nnc(-c3cc[nH]n3)s2)c1 [compound 162] | ≥ 80% |  | 
1.07 | c1cncc(-c2nnc(-c3cccnc3)s2)c1 [compound 163] | ≥ 80% |  | 
1.39 | c1cnc(-c2cccc(-c3nnc(-c4cncnc4)s3)n2)nc1 [compound 164] | ≥ 80% |  | 
1.91 | Fc1cncc(-c2nnc(-c3cccc(-c4ncccn4)n3)s2)c1 [compound 165] | ≥ 80% |  | 
0.91 | Cn1nc(-c2cccnc2)cc1-c1ccn(Cc2ccccn2)n1 [compound 166] | ≥ 80% |  | 
0.83 | COCc1nccc(-c2cc(-c3cccnc3)nn2C)n1 [compound 167] | ≥ 80% |  | 
0.95 | Cn1nc(-c2cccnc2)cc1C1=NN(c2ncccn2)CCO1 [compound 168] | ≥ 80% |  | 
1.64 | Cn1nc(-c2cccnc2)cc1-c1ccn(-c2ccccn2)n1 [compound 169] | ≥ 80% |  | 
0.42 | Cn1nc(-c2cccnc2)cc1-c1cc[nH]n1 [compound 170] | ≥ 80% |  | 
0.87 | Cn1nc(-c2cccnc2)cc1-c1ccnc(-c2ccccn2)n1 [compound 171] | ≥ 80% |  | 
